Measurements published in ChEMBL document CHEMBL5233269, “Anticancer potential of spirocompounds in medicinal chemistry: A pentennial expedition” (Eur J Med Chem, 2021).
Values belong to the compound of their own block, whether it stands above or below them.

How the values were obtained:
[1] = system: K562; test: Anticancer activity against human K562 cells; type: functional, cell-based
[2] = system: A549; test: Cytotoxicity against human A549 cells; type: functional, cell-based
[3] = system: HCT-116; test: Cytotoxicity against human HCT-116 cells; type: functional, cell-based
[4] = system: PC-3; test: Cytotoxicity against human PC-3 cells; type: functional, cell-based
[5] = system: SW-620; test: Cytotoxicity against human SW620 cells; type: functional, cell-based
[6] = system: MCF7; test: Cytotoxicity against human MCF7 cells incubated for 48 hrs by SRB assay relative to control; type: functional; set-up: concentration or dose not given beside the values
[7] = Cytotoxicity against human HBF4 cells incubated for 48 hrs by SRB assay relative to control; type: toxicity, cell-based; set-up: concentration or dose not given beside the values; conditions: hbf4, 48 h
[8] = system: HepG2; test: Cytotoxicity against human HepG2 cells incubated for 48 hrs by SRB assay relative to control; type: functional; set-up: concentration or dose not given beside the values
[9] = system: MCF7; test: Growth inhibition of human MCF7 cells by SRB assay; type: functional
[10] = system: MDA-MB-435; test: Growth inhibition of human MDA-MB-435 cells by SRB assay; type: functional
[11] = molecular target: T1, Amine oxidase [flavin-containing] A (Rattus norvegicus, UniProt P21396); test: Inhibition of rat brain MAO-A relative to control; type: tissue-based
T1 sequence (P21396 whole entry): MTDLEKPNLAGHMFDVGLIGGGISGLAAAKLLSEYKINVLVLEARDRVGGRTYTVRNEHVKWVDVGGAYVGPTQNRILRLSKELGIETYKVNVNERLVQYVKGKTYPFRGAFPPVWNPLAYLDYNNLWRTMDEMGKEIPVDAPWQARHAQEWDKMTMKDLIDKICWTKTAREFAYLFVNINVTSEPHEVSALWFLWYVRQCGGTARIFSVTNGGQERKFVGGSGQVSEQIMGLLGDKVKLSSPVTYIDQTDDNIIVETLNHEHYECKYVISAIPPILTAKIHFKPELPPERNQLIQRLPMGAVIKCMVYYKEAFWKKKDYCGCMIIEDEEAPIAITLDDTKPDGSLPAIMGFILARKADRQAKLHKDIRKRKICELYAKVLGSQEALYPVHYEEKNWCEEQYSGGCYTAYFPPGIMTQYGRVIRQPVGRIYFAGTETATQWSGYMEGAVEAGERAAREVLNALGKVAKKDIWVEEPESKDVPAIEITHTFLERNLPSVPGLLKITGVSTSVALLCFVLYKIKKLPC

SMILES: O=C1N(Cc2ccccc2)c2ccccc2[C@@]12[C@H](O)c1ccccc1[C@@H]2[C@]1(CN2CCCCC2)C(=O)N(Cc2ccccc2)c2ccccc21
IC50 [1]: 9.7 µM

SMILES: CCC(=O)N1CC2C(=O)Oc3ccccc3C2C12C(=O)Nc1cc(Cl)ccc12 (stereo not drawn)
IC50 [2]: > 50 µM
IC50 [3]: > 50 µM
IC50 [4]: > 50 µM
IC50 [5]: < 0.08 µM

SMILES: CCOC(=O)C1=C2N=C(N)C3=C(SC4CCCCC34)N2C2=C(C(=O)CC(C)(C)C2)C12C(=O)Nc1ccccc12 (stereo not drawn)
Activity [6]: 80%
Activity [7]: 17%
Activity [8]: 25%

SMILES: N#CC1=C(N)OC2=C(C(=O)c3ccccc32)C12C(=O)Nc1ccc(I)cc12 (stereo not drawn)
GI50 [9]: 62 µM
GI50 [10]: > 100 µM

SMILES: CC1(C)CC(=O)C2=C(C1)N(c1ccccc1)C(N)=C(C#N)C21C(=O)Nc2ccccc21 (stereo not drawn)
Activity [6]: 76%
Activity [7]: 23%
Activity [8]: 39%

SMILES: O=C(C1CN(C(=O)N2CCCCC2)C2(C(=O)Nc3ccccc32)C1c1ccc(Cl)cc1O)N1CCOCC1 (stereo not drawn)
IC50 [2]: 36.8 µM
IC50 [3]: > 50 µM
IC50 [4]: > 50 µM
IC50 [5]: < 0.08 µM

SMILES: CC1(C)CC(=O)C2=C(C1)N(c1ccc(Cl)cc1)C(N)=C(C#N)C21C(=O)Nc2ccccc21 (stereo not drawn)
Activity [6]: 79%
Activity [7]: 30%
Activity [8]: 38%

SMILES: CCC(=O)N1CC2C(=O)Oc3ccccc3C2C12C(=O)Nc1ccccc12 (stereo not drawn)
IC50 [2]: 11 µM
IC50 [3]: 10.2 µM
IC50 [4]: 46.7 µM
IC50 [5]: 4.28 µM

SMILES: CN1CCN(C(=O)C2CN(C(=O)N3CCCCC3)C3(C(=O)Nc4cc(Cl)ccc43)C2c2ccccc2O)CC1 (stereo not drawn)
IC50 [2]: 1.17 µM
IC50 [3]: > 50 µM
IC50 [4]: > 50 µM
IC50 [5]: 31.6 µM

SMILES: CCOC(=O)C1=C2N=C(N)c3ccccc3N2C2=C(C(=O)CC(C)(C)C2)C12C(=O)Nc1ccccc12 (stereo not drawn)
Activity [6]: 76%
Activity [7]: 30%
Activity [8]: 29%

SMILES: N#CC1=C(N)OC2=C(C(=O)C=C2)C12C(=O)Nc1ccc(Cl)cc12 (stereo not drawn)
GI50 [9]: 53 µM
GI50 [10]: 29.9 µM

SMILES: CCN(CC)C[C@@]1([C@H]2c3ccccc3[C@@H](O)[C@]23C(=O)N(C)c2ccc(C)cc23)C(=O)N(C)c2ccc(C)cc21
IC50 [1]: 27.8 µM

SMILES: CCOC(=O)C1=C(N)N(c2ccccc2)C2=C(C(=O)CC(C)(C)C2)C12C(=O)Nc1ccccc12 (stereo not drawn)
Activity [6]: 78%
Activity [7]: 24%
Activity [8]: 37%

More lines, now with the values ahead:

IC50 [1]: 21.4 µM
SMILES: CCN1C(=O)[C@@]2(c3cccc(C)c31)[C@H](O)c1ccccc1[C@@H]2[C@]1(CN2CCCC2)C(=O)N(CC)c2c(C)cccc21

inhibition (INH) [11]: 66%
SMILES: CCn1c(SCC(=O)Nc2ccccc2Cl)nc2c(c1=O)C1(CCCCC1)Cc1ccccc1-2

GI50 [9]: > 100 µM
GI50 [10]: 2.1 µM
SMILES: N#CC1=C(N)OC2=C(C(=O)c3ccccc32)C12C(=O)Nc1ccc(Cl)cc12 (stereo not drawn)

IC50 [1]: 32.8 µM
SMILES: CN1C(=O)[C@@]2(c3cccc(Cl)c31)[C@H](O)c1ccccc1[C@@H]2[C@]1(CN2CCCCC2)C(=O)N(C)c2c(Cl)cccc21

GI50 [9]: > 100 µM
GI50 [10]: 1.8 µM
SMILES: N#CC1=C(N)OC2=C(C(=O)c3ccccc32)C12C(=O)Nc1ccc(Br)cc12 (stereo not drawn)

IC50 [1]: 26.7 µM
SMILES: CCN(CC)C[C@@]1([C@H]2c3ccccc3[C@@H](O)[C@]23C(=O)N(C)c2c(C)cccc23)C(=O)N(C)c2c(C)cccc21

IC50 [1]: 8.8 µM
SMILES: CCN1C(=O)[C@@]2(c3cccc(Cl)c31)[C@H](O)c1ccccc1[C@@H]2[C@]1(CN2CCCC2)C(=O)N(CC)c2c(Cl)cccc21

IC50 [1]: 21.9 µM
SMILES: CN1C(=O)[C@@]2(c3cccc(Cl)c31)[C@H](O)c1ccccc1[C@@H]2[C@]1(CN2CCSCC2)C(=O)N(C)c2c(Cl)cccc21

GI50 [9]: 90.9 µM
GI50 [10]: > 100 µM
SMILES: N#CC1=C(N)OC2=C(C(=O)c3ccccc32)C12C(=O)Nc1ccc(F)cc12 (stereo not drawn)

IC50 [1]: 21 µM
SMILES: CN1C(=O)[C@@]2(c3cccc(Cl)c31)[C@H](O)c1ccccc1[C@@H]2[C@]1(CN2CCCC2)C(=O)N(C)c2c(Cl)cccc21

inhibition (INH) [11]: 58%
SMILES: CCn1c(=S)[nH]c2c(c1=O)C1(CCCCC1)Cc1ccccc1-2

inhibition (INH) [11]: 66%
SMILES: CCn1c(SC)nc2c(c1=O)C1(CCCCC1)Cc1ccccc1-2

inhibition (INH) [11]: 86%
SMILES: CCCN(CCC)C(=O)CSc1nc2c(c(=O)n1CC)C1(CCCCC1)Cc1ccccc1-2
